The source of these data is US20170275270A1, “BENZYL SUBSTITUTED INDAZOLES” (Bayer Pharma Aktiengesellschaft, priority 2014, published 2017).

The target in the first assay is T1, catalytic domain of human Bub1 (amino acids 704-1085) (Homo sapiens, UniProt O43683).
T1 construct: catalytic domain of human Bub1 (amino acids 704-1085); His6 (N); made in house; host or cells: Hi5 insect cells
T1 sequence (O43683 704-1085): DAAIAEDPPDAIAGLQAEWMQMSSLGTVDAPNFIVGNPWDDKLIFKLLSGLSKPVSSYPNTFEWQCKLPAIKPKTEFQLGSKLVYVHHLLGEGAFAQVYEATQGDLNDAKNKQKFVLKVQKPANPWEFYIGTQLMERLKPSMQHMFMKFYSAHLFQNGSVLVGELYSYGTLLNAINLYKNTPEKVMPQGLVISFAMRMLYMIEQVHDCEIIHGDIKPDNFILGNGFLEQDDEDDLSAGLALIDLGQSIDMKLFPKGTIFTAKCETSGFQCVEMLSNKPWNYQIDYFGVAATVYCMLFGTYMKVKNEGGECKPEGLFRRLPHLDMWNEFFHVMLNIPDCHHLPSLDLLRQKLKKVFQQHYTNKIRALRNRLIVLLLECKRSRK
As to the kind of experiment: Bub1 kinase assay (TR-FRET). The settings on record: 10 μM ATP, read-out: Biological Assay 1: Bub1 kinase assay median IC50. Format: biochemical. The method, then: To this end, 100-fold concentrated compound solutions (in DMSO) were previously prepared by serial dilution (1:3.4) of 2 mM stocks in a clear low volume 384-well source microtiter plate (Greiner Bio-One, Frickenhausen, Germany), from which 50 nL of compounds were transferred into a black low volume test microtiter plate from the same supplier. […] The resulting mixture (5 μL final volume) was incubated at 22° C. during 60 min., and the reaction was stopped by the addition of 5 μL of an aqueous EDTA-solution (50 mM EDTA, in 100 mM HEPES pH 7.5 and 0.2% (w/v) bovine serum albumin) which also contained the TR-FRET detection reagents (0.2 μM streptavidin-XL665 [Cisbio Bioassays, Codolet, France] and 1 nM anti-phosho-Serine antibody [Merck Millipore, cat. #35-001] and 0.4 nM LANCE EU-W1024 labeled anti-mouse IgG antibody [Perkin-Elmer, product no. AD0077, alternatively a Terbium-cryptate-labeled anti-mouse IgG antibody from Cisbio Bioassays can be used]). The stopped reaction mixture was further incubated 1 h at 22° C. in order to allow the formation of complexes between peptides and detection reagents. Subsequently, the amount of product was evaluated by measurement of the resonance energy transfer from the Eu-chelate-antibody complex recognizing the Phosphoserine residue to the streptavidin-XL665 bound to the biotin moiety of the peptide. […] IC50 values were calculated by fitting the normalized inhibition data to a 4-parameter logistic equation (Minimum, Maximum, IC50, Hill; Y=Max+(Min−Max)/(1+(X/IC50) Hill)).
In general terms: Time-resolved FRET reads energy transfer from a long-lived donor to a nearby acceptor.
For the molecule `COCCOc1cc(F)c(Cn2nc(-c3nc(Nc4ccncc4OC)cc(C(C)C)n3)c3ccccc32)c(F)c1` [Example 2-12-73, 2-{1-[2,6-difluoro-4-(2-methoxyethoxy)benzyl]-1H-indazol-3-yl}-6-isopropyl-N-(3-methoxypyridin-4-yl)pyrimidin-4-amine], the IC50 stood at 15 nM.
Consider `CCOc1cc(F)c(Cn2nc(-c3nc(C)cc(Nc4ccncc4O)n3)c3ccccc32)c(F)c1` [Example 2-12-80, 4-({2-[1-(4-ethoxy-2,6-difluorobenzyl)-1H-indazol-3-yl]-6-methylpyrimidin-4-yl}amino)pyridin-3-ol], for which the IC50 turned out to be 51 nM.
In the case of `COCCOc1cc(F)c(Cn2nc(-c3nc(Nc4cc(C)ncc4C)cc(C(C)C)n3)c3ccccc32)c(F)c1` [Example 2-12-74, 2-{1-[2,6-difluoro-4-(2-methoxyethoxy)benzyl]-1H-indazol-3-yl}-N-(2,5-dimethylpyridin-4-yl)-6-isopropylpyrimidin-4-amine], the IC50 came to 180 nM.

The same assay, now with this note: Biological Assay 1: Bub1 kinase assay median IC50, 10 μM ATP.
With `COCCOc1cc(F)c(Cn2nc(-c3nc4c(c(Nc5ccnc(C)n5)n3)CCC(C)(C)C4)c3ccccc32)c(F)c1` [Example 2-15-9, 2-{1-[2,6-difluoro-4-(2-methoxyethoxy)benzyl]-1H-indazol-3-yl}-7,7-dimethyl-N-(2-methylpyrimidin-4-yl)-5,6,7,8-tetrahydroquinazolin-4-amine], the IC50 amounted to 81 nM.
Same read-out and setting: the value for `CCOc1cc(F)c(Cn2nc(-c3nc(CN4CCOCC4)cc(Nc4ccnc(OC)c4)n3)c3ccccc32)c(F)c1` [Example 2-19-10, 2-[1-(4-ethoxy-2,6-difluorobenzyl)-1H-indazol-3-yl]-N-(2-methoxypyridin-4-yl)-6-(morpholin-4-ylmethyl)pyrimidin-4-amine] was 94 nM.
The same measure, in the same setting: the result for `CCOc1cc(F)c(Cn2nc(-c3ncc(CNC=O)c(Nc4ccncc4)n3)c3ccccc32)c(F)c1` [Example 2-2-8, N-({2-[1-(4-ethoxy-2,6-difluorobenzyl)-1H-indazol-3-yl]-4-(pyridin-4-ylamino)pyrimidin-5-yl}methyl)formamide] reads 10 nM; that for `COCCOc1cc(F)c(Cn2nc(-c3nc4c(c(Nc5cc(C)ncc5F)n3)CCC4)c3ccccc32)c(F)c1` [Example 2-12-58, 2-{1-[2,6-difluoro-4-(2-methoxyethoxy)benzyl]-1H-indazol-3-yl}-N-(5-fluoro-2-methylpyridin-4-yl)-6,7-dihydro-5H-cyclopenta[d]pyrimidin-4-amine], 17 nM; that for `COc1cnccc1Nc1nc(-c2nn(Cc3c(F)cc(OCCO)cc3F)c3ccccc23)nc2c1CN(CC(F)(F)F)C2` [Example 2-6-41, 2-{3,5-difluoro-4-[(3-{4-[(3-methoxypyridin-4-yl)amino]-6-(2,2,2-trifluoroethyl)-6,7-dihydro-5H-pyrrolo[3,4-d]pyrimidin-2-yl}-1H-indazol-1-yl)methyl]phenoxy}ethanol], 14 nM.
With `Oc1cc(F)c(Cn2nc(-c3nc4c(c(Nc5ccncn5)n3)CCC4)c3ccccc32)c(F)c1` [Example 2-6-11, 3,5-difluoro-4-({3-[4-(pyrimidin-4-ylamino)-6,7-dihydro-5H-cyclopenta[d]pyrimidin-2-yl]-1H-indazol-1-yl}methyl)phenol], the IC50 came to 14 nM.
As for `COCCOc1cc(F)c(Cn2nc(-c3nc4c(c(Nc5ccncc5OC)n3)CCCCC4)c3ccccc32)c(F)c1` [Example 2-12-70, 2-{1-[2,6-difluoro-4-(2-methoxyethoxy)benzyl]-1H-indazol-3-yl}-N-(3-methoxypyridin-4-yl)-6,7,8,9-tetrahydro-5H-cyclohepta[d]pyrimidin-4-amine], the IC50 was 9.9 nM.
The same measure, in the same setting: the value for `CCOc1cc(F)c(Cn2nc(-c3nc4c(c(Nc5ccncc5)n3)CCN(Cc3ccccc3)C4)c3ccccc32)c(F)c1` [Example 2-12-15, 7-Benzyl-2-[1-(4-ethoxy-2,6-difluorobenzyl)-1H-indazol-3-yl]-N-(pyridin-4-yl)-5,6,7,8-tetrahydropyrido[3,4-d]pyrimidin-4-amine] was 68 nM; that for `CCOc1cc(F)c(Cn2nc(-c3ncc(CC4CN(CC(F)(F)F)C4)c(Nc4ccnc(NC(C)=O)c4)n3)c3ccccc32)c(F)c1` [Example 2-11-4, N-{4-[(2-[1-(4-ethoxy-2,6-difluorobenzyl)-1H-indazol-3-yl]-5-{[1-(2,2,2-trifluoroeth-yl)azetidin-3-yl]methyl}pyrimidin-4-yl)amino]pyr-idin-2-yl}acetamide] was 210 nM.
Same read-out and setting: the value for `CCOc1cc(F)c(Cn2nc(-c3nc4c(c(Nc5ccncc5)n3)COC4)c3ccccc32)c(F)c1` [Example 2-14-10, 2-[1-(4-ethoxy-2,6-difluorobenzyl)-1H-indazol-3-yl]-N-(pyridin-4-yl)-5,7-dihydrofuro[3,4-d]pyrimidin-4-amine] was 7 nM.
Still for that read-out and setting: the value for `COCCOc1cc(F)c(Cn2nc(-c3nc4c(c(Nc5cc(C)ncc5C)n3)CCC4)c3ccccc32)c(F)c1` [Example 2-12-57, 2-{1-[2,6-difluoro-4-(2-methoxyethoxy)benzyl]-1H-indazol-3-yl}-N-(2,5-dimethylpyridin-4-yl)-6,7-dihydro-5H-cyclopenta[d]pyrimidin-4-amine] was 130 nM.
With `CCOc1cc(F)c(Cn2nc(-c3ncc(CCSC)c(Nc4ccncc4)n3)c3ccccc32)c(F)c1` [Example 2-2-1, 2-[1-(4-ethoxy-2,6-difluorobenzyl)-1H-indazol-3-yl]-5-[2-(methylsulfanyl)ethyl]-N-(pyridin-4-yl)pyrimidin-4-amine], the IC50 was 11 nM.
On the same count and under the same terms, the result for `CCOc1cc(F)c(Cn2nc(-c3nc4c(c(Nc5ccncc5C)n3)CSC4)c3ccccc32)c(F)c1` [Example 2-19-2, 2-[1-(4-ethoxy-2,6-difluorobenzyl)-1H-indazol-3-yl]-N-(3-methylpyridin-4-yl)-5,7-dihydrothieno[3,4-d]pyrimidin-4-amine] reads 25 nM.
`COCCOc1cc(F)c(Cn2nc(-c3nc4c(c(Nc5ccncn5)n3)CN(CC(F)(F)F)C4)c3ccccc32)c(F)c1` [Example 2-20-18, 2-{1-[2,6-difluoro-4-(2-methoxyethoxy)benzyl]-1H-indazol-3-yl}-N-(pyrimidin-4-yl)-6-(2,2,2-trifluoroethyl)-6,7-dihydro-5H-pyrrolo[3,4-d]pyrimidin-4-amine] came in with an IC50 of 28 nM.
For the molecule `CCOc1cc(F)c(Cn2nc(-c3nc4c(c(Nc5ccncc5C5CC5)n3)CCC4)c3ccccc32)c(F)c1` [Example 2-14-8, N-(3-cyclopropylpyridin-4-yl)-2-[1-(4-ethoxy-2,6-difluorobenzyl)-1H-indazol-3-yl]-6,7-dihydro-5H-cyclopenta[d]pyrimidin-4-amine], the IC50 turned out to be 8.2 nM.
`COCCOc1cc(F)c(Cn2nc(-c3ncc(C4CCNCC4)c(Nc4ccncc4Cl)n3)c3ccccc32)c(F)c1` [Example 2-17-9, N-(3-chloropyridin-4-yl)-2-{1-[2,6-difluoro-4-(2-methoxyethoxy)benzyl]-1H-indazol-3-yl}-5-(piperidin-4-yl)pyrimidin-4-amine] came in with an IC50 of 7.5 nM.
Consider `CCOc1cc(F)c(Cn2nc(-c3nc(Nc4ccncn4)cc(-c4sc(C)nc4C)n3)c3ccccc32)c(F)c1` [Example 2-12-85, 6-(2,4-dimethyl-1,3-thiazol-5-yl)-2-[1-(4-ethoxy-2,6-difluorobenzyl)-1H-indazol-3-yl]-N-(pyrimidin-4-yl)pyrimidin-4-amine], for which half-maximal inhibition (IC50) required 6000 nM.
`CC(=O)Nc1cc(Nc2nc(-c3nn(Cc4c(F)cc(OCCO)cc4F)c4ccccc34)nc3c2CCC(C)(C)C3)ccn1` [Example 2-6-42, N-{4-[(2-{1-[2,6-difluoro-4-(2-hydroxyethoxy)benzyl]-1H-indazol-3-yl}-7,7-dimethyl-5,6,7,8-tetrahydroquin-azolin-4-yl)amino]pyridin-2-yl}acetamide] gave an IC50 of 14 nM.
Turning to `COCCOc1cc(F)c(Cn2nc(-c3nc(Nc4ccnc(C)n4)cc(C(C)C)n3)c3ccccc32)c(F)c1` [Example 2-12-72, 2-{1-[2,6-difluoro-4-(2-methoxyethoxy)benzyl]-1H-indazol-3-yl}-6-isopropyl-N-(2-methylpyrimidin-4-yl)pyrimidin-4-amine], 670 nM corresponded to half-maximal inhibition (IC50).
Molecule `CCOc1cc(F)c(Cn2nc(-c3ncc(CCOC)c(Nc4ccncc4)n3)c3ccccc32)c(F)c1` [Example 2-2-9, 2-[1-(4-ethoxy-2,6-difluorobenzyl)-1H-indazol-3-yl]-5-(2-methoxyethyl)-N-(pyridin-4-yl)pyrimidin-4-amine] returned an IC50 of 12 nM.
As for `CCOc1cc(F)c(Cn2nc(-c3ncc(CCCSC)c(Nc4ccncc4)n3)c3ccccc32)c(F)c1` [Example 2-2-2, 2-[1-(4-ethoxy-2,6-difluorobenzyl)-1H-indazol-3-yl]-5-[3-(methylsulfanyl)propyl]-N-(pyridin-4-yl)pyrimidin-4-amine], 12 nM corresponded to half-maximal inhibition (IC50).
Turning to `Cc1cc(Nc2nc(-c3nn(Cc4c(F)cc(OCCO)cc4F)c4ccccc34)nc3c2CCC(C)(C)C3)c(C)cn1` [Example 2-6-43, 2-{4-[(3-{4-[(2,5-dimethylpyridin-4-yl)amino]-7,7-dimethyl-5,6,7,8-tetrahydroquin-azolin-2-yl}-1H-indazol-1-yl)methyl]-3,5-difluorophenoxy} ethanol], the IC50 is 84 nM.

What is called IC50 is the concentration at which inhibition is half-maximal.
